# Experimental data from US11278563B2, “Rapid release pharmaceutical formulations containing algal cellulose” (priority 2016, dated 2022).
# Columns and labels:
# [1] = DSC melting enthalpy and degree of crystallinity of FFA in cellulose mixtures; type: physicochemical; settings: degree of crystallinity of FFA from DSC melting enthalpy, about 10 wt % FFA, n = 3
# Method: Thermal analysis was performed with TA instrument (Model Q-2000) on both cellulose-drug mixtures and pure substances. Samples were placed inside hermetically sealed aluminium crucibles with punctured lids, in order to avoid overpressure caused by water evaporation. An empty pan was used as a reference. The analysis was conducted in the temperature range from −40° C. to 150° C. with a heating rate of 10° C. min^−1. N2 gas, at a flow of 50 mL min^−1, was applied during analysis. Initially the samples were cooled from room temperature to −40° C., then heated to 150° C. and finally cooled to 25° C. again. All of the samples were stored at ambient conditions for 24 hours prior to DSC measurements. For the heated cellulose-FFA mixtures the heating conditions were 120° C. for 2 hours.
# The measurements were performed in triplicate, and the estimated amount of drug in the mixtures was 10 wt %.
# [2] = Degree of drug crystallinity from weight normalized melting enthalpies (TGA heat flow); type: physicochemical
# Method: TGA was conducted on a Mettler TG50 apparatus (10 K min^−1; 35° C. to 20° C. above the melting point of the drug) on 10-20 mg samples in aluminium crucibles under a nitrogen atmosphere (60 mL min^−1). Both normal and heated 10% mixtures were analysed and compared to the pure crystalline substance of corresponding drug content, i.e. 1-2 mg. The temperature in the furnace was continuously monitored, and the heat flow curves were collected both for heating and cooling phase to record melting or re-crystallization events.
# The weight normalized enthalpies of melting observed in cellulose-drug mixtures were calculated using the STARe Excellence software (Mettler Toledo) and compared to the weight normalized enthalpy for the pure crystalline drug, to give a rough estimate of the degree of the drug crystallinity (“Crl”) as follows.
# [formula] where ΔHmelt is weight normalised melting enthalpy of the drug in a specific cellulose-drug blend [in Joules/g] and ΔHdrug is the melting enthalpy of a pure crystalline drug [in Joules/g]. X-Ray Diffraction (XRD)
compound,measurement,setting,value
"O=C(O)c1ccccc1Nc1cccc(C(F)(F)F)c1 [FFA, flufenamic acid]",CrlFFA.%,[1],100%
"COc1ccc2cc([C@H](C)C(=O)O)ccc2c1 [NAP, naproxen]",CrlNAP (%),[2]; melting event,100%
same,CrlNAP (%),[2]; recrystallisation event of pure NAP (NAP recryst.),76%
"CC(=O)[C@H]1CC[C@H]2[C@@H]3CCC4=CC(=O)CC[C@]4(C)[C@H]3CC[C@]12C [PRO, progesterone]",CrlPRO (%),[2]; melting event,100%
